Holding throughout (type): in vivo
The subject of assay [1] is female Albino Wistar rats. As to the kind of experiment: four month daily treatment study, investigated age related conditions overall. Particulars: summary of the study; effects of ResArgin being more significant than those of resveratrol. How it is done: (§1) To determine the efficacy of resveratrol-arginine conjugate, six month old female Albino Wistar rats were divided into seven groups (six rats per group) and given the following daily treatment for four months: • Group 1: Control; • Group 2: 25 mg ResArgin/kg body wt; • Group 3: 50 mg ResArgin/kg body wt; • Group 4: 75 mg ResArgin/kg body wt; • Group 5: 25 mg Resveratrol/kg body wt; • Group 6: 50 mg Resveratrol/kg body wt;
Based on the results of the study performed, the effective dosage of resveratrol arginine conjugate is 10 to 250 mg per kilogram of body weight for a period of at least two weeks.

Assay [2] concerns female Albino Wistar rats. In words: glucose tolerance test. The note with it: 25, 50, 75 mg/kg body wt daily for four months; 6 h fast, 2 g/kg intraperitoneally, tail vein blood 0-120 min; p<0.01 ResArgin, p<0.05 resveratrol. The protocol:
as §1
Group 7: 75 mg Resveratrol/kg body wt. In one embodiment, glucose tolerance levels were tested via a glucose tolerance test and analysis was performed. Compared to the Control group, glucose tolerance was improved in the ResArgin and resveratrol groups (p<0.01 and p<0.05 respectively) over the experimental period.
In one embodiment, glucose tolerance tests were performed after having the rats fast for 6 hours and injecting 2 g/kg body weight intraperitoneally. Blood was then collected from the tail vein at 0, 15, 30, 60 and 120 minutes after injection.

Assay [3] deals with female Albino Wistar rats. In words: hair regrowth assay. The note with it: 25, 50, 75 mg/kg body wt daily for four months; dorsal hair plucked 1.5 cm x 1.5 cm, scored two weeks later from digital photographs. The protocol: as §1
In another embodiment, hair regrowth assay was done and quantified. Compared to the Control group, hair regrowth was improved in the ResArgin and resveratrol groups over the experimental period.
In the hair regrowth assay, dorsal hair was removed by plucking from a square of approximately 1.5 cm×1.5 cm. Hair growth and re-growth was scored two weeks later on the basis of digital photographs.

Regarding `Oc1ccc(C=Cc2cc(O)cc(O)c2)cc1` [resveratrol], the “effect on the investigated age related conditions” value in assay [1] is given as “significantly improved”. Further, the “glucose tolerance compared to the Control group” value in assay [2] is “improved”. The “hair regrowth compared to the Control group” value in assay [3] was “improved”.

For the origin of these results see patent US20170119693A1, “Methods of Improving Glucose Tolerance, Hair Regrowth, and Bio-Availability” (priority 2015, published 2017).
